One compound from PMC6900016, “Synthesis of Indomorphan Pseudo‐Natural Product Inhibitors of Glucose Transporters GLUT‐1 and ‐3” (Angewandte Chemie (International Ed. in English), 2019) can be followed below.

Assay in all cases: cells
Design in all cases: Cell growth inhibition, sulforhodamine B total protein staining

The subject of one test is 22RV1. The settings on record: Homo sapiens, 22Rv1; 72 h growth; read-out: Cell growth inhibition IC50/µM. The method, boiled down:
(§1)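 72 h exposure of a 94-cell-line panel to Glupin; growth measured by sulforhodamine B total-protein staining after TCA fixation (10% adherent, 50% suspension/semi-adherent, 1 h at 4 °C). IC50 derived from growth inhibition.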

The next test deals with 5637. The settings on record: 72 h growth; read-out: Cell growth inhibition IC50/µM. The method, boiled down: as §1
Another test concerns A2780. To be noted: Homo sapiens, A2780; 72 h growth; read-out: Cell growth inhibition IC50/µM. The method, boiled down:
as §1

In the next test the test system is BXPC3. To be noted: Homo sapiens, BXPC-3; 72 h growth; read-out: Cell growth inhibition IC50/µM. The method, boiled down:
as §1

For a further test, the system named is CACO2. The settings on record: Homo sapiens, Caco-2; 72 h growth; read-out: Cell growth inhibition IC50/µM. The method, boiled down: as §1
The subject of another test is DLD1. The settings on record: Homo sapiens, DLD-1; 72 h growth; read-out: Cell growth inhibition IC50/µM. The method, boiled down: as §1
For the next test, the system named is GRANTA519. The settings on record: Homo sapiens, Granta-519; 72 h growth; read-out: Cell growth inhibition IC50/µM. The method, boiled down:
as §1

The subject of the next test is HL60. To be noted: Homo sapiens, HL-60; 72 h growth; read-out: Cell growth inhibition IC50/µM. In a few lines:
as §1

The subject of the next test is HT1080. The settings on record: Homo sapiens, HT-1080; 72 h growth; read-out: Cell growth inhibition IC50/µM. In a few lines: as §1
The test system of another test is MDAMB435. To be noted: Homo sapiens, MDA-MB-435; 72 h growth; read-out: Cell growth inhibition IC50/µM. In a few lines:
as §1

The next test deals with MDAMB436. The settings on record: Homo sapiens, MDA-MB-436; 72 h growth; read-out: Cell growth inhibition IC50/µM. In a few lines:
as §1

The subject of a further test is MDAMB468. To be noted: Homo sapiens, MDA-MB-468; 72 h growth; read-out: Cell growth inhibition IC50/µM. The method, boiled down: as §1
The next test deals with NCIH358M. The settings on record: NCI-H358M; 72 h growth; read-out: Cell growth inhibition IC50/µM. In a few lines: as §1
The next test deals with PANC1005. To be noted: Homo sapiens, Panc1005; 72 h growth; read-out: Cell growth inhibition IC50/µM. In a few lines:
as §1

A further test deals with RDES. The settings on record: RD-ES; 72 h growth; read-out: Cell growth inhibition IC50/µM. In a few lines: as §1
The next test deals with SF295. To be noted: Homo sapiens, SF-295; 72 h growth; read-out: Cell growth inhibition IC50/µM. The method, boiled down:
as §1

The next test relates to SKMEL28. To be noted: Homo sapiens, SK-MEL-28; 72 h growth; read-out: Cell growth inhibition IC50/µM. The method, boiled down: as §1
Another test relates to SKMEL5. To be noted: Homo sapiens, SK-MEL-5; 72 h growth; read-out: Cell growth inhibition IC50/µM. In a few lines:
as §1

A further test relates to SKNSH. To be noted: Homo sapiens, SK-N-SH; 72 h growth; read-out: Cell growth inhibition IC50/µM. In a few lines:
as §1

The next test deals with SKOV3. The settings on record: Homo sapiens, SK-OV-3; 72 h growth; read-out: Cell growth inhibition IC50/µM. The method, boiled down: as §1
The next test has as its system SNB75. To be noted: Homo sapiens, SNB-75; 72 h growth; read-out: Cell growth inhibition IC50/µM. The method, boiled down: as §1
Another test deals with SW620. The settings on record: Homo sapiens, SW-620; 72 h growth; read-out: Cell growth inhibition IC50/µM. In a few lines:
as §1

Another test relates to TE671. To be noted: Homo sapiens, TE-671; 72 h growth; read-out: Cell growth inhibition IC50/µM. In a few lines:
as §1

As for `CCOC(=O)Cn1c2c(c3ccccc31)C[C@@H]1C[C@H]2C(OC)CN1C(=O)c1cccnc1SC` (single isomer, unassigned; (+)) [(+)-5a, Glupin], the IC50 with 22RV1 came out at 5.57 µM; in the test on 5637, 0.114 µM; in the test on A2780, 0.248 µM; in the test on BXPC3, 0.591 µM; in the test with CACO2, 3.51 µM; with DLD1, 0.825 µM. Also, the IC50 is above 30 µM with GRANTA519; 0.112 µM with HL60; 0.118 µM in the test with HT1080; 0.513 µM with MDAMB435; 11.1 µM in the test on MDAMB436; 4.32 µM in the test on MDAMB468. For the same compound, the IC50 in the test on NCIH358M was above 30 µM; in the test on PANC1005, 0.269 µM; with RDES it was 3.71 µM; in the test with SF295, 0.427 µM; in the test on SKMEL28 it was above 30 µM; in the test with SKMEL5, above 30 µM. The IC50 with SKNSH was 0.084 µM; in the test with SKOV3 it was 6.07 µM; in the test with SNB75, 9.13 µM; with SW620, above 30 µM; in the test on TE671, 0.299 µM.
